Assay results published in paper PMC5831858, “Pharmacological characterisation of CR6086, a potent prostaglandin E2 receptor 4 antagonist, as a new potential disease-modifying anti-rheumatic drug” (Arthritis Research & Therapy, 2018).
“Also recorded” adds a separate entry of the source. Marks after values point to notes of the source that are not given here.

Columns and labels:
[1] = target: AT1 (Homo sapiens, UniProt P30556); experiment: Angiotensin receptor AT1 binding; conditions: [^125I][Sar^1, IIe^8]-AT-II, Human recombinant HEK-293 cells, read-out: CR6086 Activity at 10µM
AT1, sequence (P30556 whole entry): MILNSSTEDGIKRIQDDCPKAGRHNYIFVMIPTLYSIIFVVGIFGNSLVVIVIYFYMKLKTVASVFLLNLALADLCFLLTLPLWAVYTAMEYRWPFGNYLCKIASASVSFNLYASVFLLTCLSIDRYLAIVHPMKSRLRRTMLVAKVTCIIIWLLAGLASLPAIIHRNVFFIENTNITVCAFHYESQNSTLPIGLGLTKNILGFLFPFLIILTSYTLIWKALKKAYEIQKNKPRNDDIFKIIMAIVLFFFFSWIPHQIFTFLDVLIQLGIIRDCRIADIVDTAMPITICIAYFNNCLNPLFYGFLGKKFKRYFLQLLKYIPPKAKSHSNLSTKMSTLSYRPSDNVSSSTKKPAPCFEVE

[2] = target: Norepinephrine transporter (Homo sapiens, UniProt P23975); experiment: Norepinephrine transporter binding; conditions: [^3H]nisoxetine, Human recombinant CHO cells, read-out: CR6086 Activity at 10µM
Norepinephrine transporter, sequence (P23975 whole entry): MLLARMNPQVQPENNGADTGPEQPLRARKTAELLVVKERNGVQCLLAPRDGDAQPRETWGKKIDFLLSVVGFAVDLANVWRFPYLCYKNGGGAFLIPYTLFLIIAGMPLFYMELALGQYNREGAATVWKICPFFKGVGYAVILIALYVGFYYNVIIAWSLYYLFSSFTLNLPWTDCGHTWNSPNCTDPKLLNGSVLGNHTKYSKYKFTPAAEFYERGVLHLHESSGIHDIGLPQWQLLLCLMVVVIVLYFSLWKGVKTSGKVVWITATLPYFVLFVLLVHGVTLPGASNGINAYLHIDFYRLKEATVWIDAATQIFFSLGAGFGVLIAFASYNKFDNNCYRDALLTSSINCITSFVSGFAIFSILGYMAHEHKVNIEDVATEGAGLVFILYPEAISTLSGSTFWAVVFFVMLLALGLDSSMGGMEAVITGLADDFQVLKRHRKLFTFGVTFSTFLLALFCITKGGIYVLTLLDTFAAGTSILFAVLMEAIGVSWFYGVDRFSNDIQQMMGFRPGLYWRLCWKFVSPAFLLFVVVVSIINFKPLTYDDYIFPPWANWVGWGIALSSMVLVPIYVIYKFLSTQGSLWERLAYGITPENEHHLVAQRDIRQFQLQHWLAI

[3] = target: Dopamine transporter (Homo sapiens, UniProt Q01959); experiment: Dopamine transporter binding; conditions: [^3H]BTCP, Human recombinant CHO cells, read-out: CR6086 Activity at 10µM
Dopamine transporter, sequence (Q01959 whole entry): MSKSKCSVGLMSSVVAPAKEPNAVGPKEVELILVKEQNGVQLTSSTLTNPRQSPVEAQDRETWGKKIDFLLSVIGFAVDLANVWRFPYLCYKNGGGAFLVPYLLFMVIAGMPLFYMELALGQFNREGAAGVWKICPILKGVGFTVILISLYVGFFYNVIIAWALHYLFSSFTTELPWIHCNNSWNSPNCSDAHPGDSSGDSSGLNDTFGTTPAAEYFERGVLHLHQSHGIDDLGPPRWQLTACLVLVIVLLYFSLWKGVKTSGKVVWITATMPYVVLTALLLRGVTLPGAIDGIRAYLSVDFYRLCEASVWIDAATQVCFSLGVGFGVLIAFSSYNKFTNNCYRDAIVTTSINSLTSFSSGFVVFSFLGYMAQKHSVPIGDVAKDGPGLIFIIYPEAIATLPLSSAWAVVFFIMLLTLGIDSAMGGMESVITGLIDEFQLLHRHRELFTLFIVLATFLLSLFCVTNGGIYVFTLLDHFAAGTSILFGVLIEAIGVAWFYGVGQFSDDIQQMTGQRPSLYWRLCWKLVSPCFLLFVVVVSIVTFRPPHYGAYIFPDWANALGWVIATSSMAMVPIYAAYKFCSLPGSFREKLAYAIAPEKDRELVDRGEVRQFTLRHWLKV

[4] = target: T1, EP2 (Homo sapiens, UniProt P43116); experiment: Eicosanoid receptor EP2 binding; conditions: [^3H]PGE2, HEK-293 cells, read-out: CR6086 Activity at 10µM
T1 construct: host or cells: HEK-293 cells
T1 sequence (P43116 whole entry): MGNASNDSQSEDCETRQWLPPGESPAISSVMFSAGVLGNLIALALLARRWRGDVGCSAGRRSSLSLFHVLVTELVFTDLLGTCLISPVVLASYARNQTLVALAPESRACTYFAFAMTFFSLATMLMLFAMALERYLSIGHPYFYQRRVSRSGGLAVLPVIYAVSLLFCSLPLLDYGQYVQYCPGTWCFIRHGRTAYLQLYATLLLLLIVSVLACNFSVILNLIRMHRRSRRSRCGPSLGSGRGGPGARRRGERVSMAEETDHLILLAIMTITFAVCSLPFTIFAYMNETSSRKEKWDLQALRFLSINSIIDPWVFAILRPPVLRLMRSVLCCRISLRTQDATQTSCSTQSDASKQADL

[5] = target: β1 (Homo sapiens, UniProt P08588); experiment: Adrenergic receptor β1 binding; conditions: [^3H](-)CGP 12177, Human recombinant HEK-293 cells, read-out: CR6086 Activity at 10µM
β1, sequence (P08588 whole entry): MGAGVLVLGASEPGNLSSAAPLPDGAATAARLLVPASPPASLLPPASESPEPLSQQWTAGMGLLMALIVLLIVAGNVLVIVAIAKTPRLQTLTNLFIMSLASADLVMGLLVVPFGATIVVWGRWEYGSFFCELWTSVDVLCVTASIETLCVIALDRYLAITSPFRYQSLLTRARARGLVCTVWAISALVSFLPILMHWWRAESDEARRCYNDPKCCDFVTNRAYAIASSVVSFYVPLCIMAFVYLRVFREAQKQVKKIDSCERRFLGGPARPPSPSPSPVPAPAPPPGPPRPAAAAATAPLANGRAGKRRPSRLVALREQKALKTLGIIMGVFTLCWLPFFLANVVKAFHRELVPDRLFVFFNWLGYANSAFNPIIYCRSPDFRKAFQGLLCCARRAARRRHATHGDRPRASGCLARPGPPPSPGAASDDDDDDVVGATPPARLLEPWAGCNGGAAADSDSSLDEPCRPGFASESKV

[6] = target: GR (Homo sapiens, UniProt P04150); experiment: Nuclear receptor GR binding; conditions: [^3H]dexamethasone, IM-9 cells (cytosol), read-out: CR6086 Activity at 10µM
GR, sequence (P04150 whole entry): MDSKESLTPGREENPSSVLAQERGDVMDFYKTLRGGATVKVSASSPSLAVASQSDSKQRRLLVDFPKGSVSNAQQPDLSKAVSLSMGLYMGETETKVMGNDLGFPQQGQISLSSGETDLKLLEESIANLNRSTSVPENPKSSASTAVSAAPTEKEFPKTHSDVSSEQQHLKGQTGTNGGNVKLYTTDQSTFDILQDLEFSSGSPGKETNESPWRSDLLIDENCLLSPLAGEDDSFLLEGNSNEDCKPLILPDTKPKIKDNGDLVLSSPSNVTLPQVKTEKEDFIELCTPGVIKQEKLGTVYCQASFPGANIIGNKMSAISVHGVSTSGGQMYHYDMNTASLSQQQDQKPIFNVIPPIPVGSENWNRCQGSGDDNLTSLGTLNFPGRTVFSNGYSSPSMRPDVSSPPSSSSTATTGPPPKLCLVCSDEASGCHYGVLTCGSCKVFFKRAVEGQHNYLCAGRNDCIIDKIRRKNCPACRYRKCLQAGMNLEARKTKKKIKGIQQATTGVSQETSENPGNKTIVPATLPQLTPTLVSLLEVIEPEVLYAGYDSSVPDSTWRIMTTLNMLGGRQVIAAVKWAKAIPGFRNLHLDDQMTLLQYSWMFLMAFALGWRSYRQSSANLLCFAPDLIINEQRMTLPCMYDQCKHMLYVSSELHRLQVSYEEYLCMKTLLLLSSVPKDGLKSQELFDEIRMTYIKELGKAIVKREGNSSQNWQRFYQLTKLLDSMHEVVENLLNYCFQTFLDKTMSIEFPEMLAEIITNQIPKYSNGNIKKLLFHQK

[7] = target: µ (MOP) (Homo sapiens, UniProt P35372); experiment: Opioid receptor µ (MOP) binding; conditions: [^3H]DAMGO, Human recombinant HEK-293 cells, read-out: CR6086 Activity at 10µM
µ (MOP), sequence (P35372 whole entry): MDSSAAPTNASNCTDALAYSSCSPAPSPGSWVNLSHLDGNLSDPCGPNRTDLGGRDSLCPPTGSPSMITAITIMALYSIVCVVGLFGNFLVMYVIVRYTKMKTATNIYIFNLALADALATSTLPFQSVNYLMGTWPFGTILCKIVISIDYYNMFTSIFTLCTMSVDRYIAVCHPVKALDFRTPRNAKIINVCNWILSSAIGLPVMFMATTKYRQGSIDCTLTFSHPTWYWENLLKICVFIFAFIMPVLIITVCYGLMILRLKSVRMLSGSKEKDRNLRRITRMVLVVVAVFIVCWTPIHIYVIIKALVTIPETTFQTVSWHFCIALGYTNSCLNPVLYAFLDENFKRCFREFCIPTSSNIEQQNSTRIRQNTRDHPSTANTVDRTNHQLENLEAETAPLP

[8] = target: Y1 (Homo sapiens, UniProt P25929); experiment: Neuropeptide Y receptor Y1 binding; conditions: [^125I]peptide YY, SK-N-MC cells (endogenous), read-out: CR6086 Activity at 10µM
Y1, sequence (P25929 whole entry): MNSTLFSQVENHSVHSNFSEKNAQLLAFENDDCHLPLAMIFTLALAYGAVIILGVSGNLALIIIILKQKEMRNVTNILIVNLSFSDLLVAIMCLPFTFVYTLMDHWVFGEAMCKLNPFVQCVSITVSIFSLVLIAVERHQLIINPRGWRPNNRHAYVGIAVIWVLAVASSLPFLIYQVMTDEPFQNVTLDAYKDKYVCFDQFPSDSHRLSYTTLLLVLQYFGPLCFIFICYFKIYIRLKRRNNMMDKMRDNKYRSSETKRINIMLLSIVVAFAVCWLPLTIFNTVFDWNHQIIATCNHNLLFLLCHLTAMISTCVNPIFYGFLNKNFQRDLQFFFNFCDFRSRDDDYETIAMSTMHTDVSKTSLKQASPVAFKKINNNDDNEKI

[9] = target: B2 (Homo sapiens, UniProt P30411); experiment: B2 receptor binding; conditions: [^3H]bradykinin, Human recombinant CHO cells, read-out: CR6086 Activity at 10µM
[10] = tested on: arthritic mice (collagen-induced arthritis model); experiment: FACS analysis of cell populations in the joint, CIA mice; assay type: in vivo, mouse; conditions: CR6086 60 mg/kg, naproxen 60 mg/kg, etanercept 10 mg/kg, mean ± SEM
Method: (§1) In a first study, mice were randomised into the following treatment groups: vehicle, 30 mg/kg CR6086, 60 mg/kg CR6086, 60 mg/kg naproxen and 10 mg/kg etanercept. Animals received the test drugs for 10 days. CR6086 and naproxen were administered orally once daily, whereas etanercept was administered intraperitoneally every other day. Animals treated with vehicle, 60 mg/kg CR6086, naproxen and etanercept were additionally analysed for the proportion of populations of Th17 cells, Th1 cells, regulatory T cells, B cells, macrophages, neutrophils and dendritic cells by fluorescence-activated cell sorting (FACS) after collection of blood, draining lymph nodes and joints.

[11] = tested on: arthritic mice (collagen-induced arthritis model); experiment: CIA in mice, first study: clinical score and paw swelling; assay type: in vivo, mouse; conditions: 10 days; CR6086 30 and 60 mg/kg, naproxen 60 mg/kg oral once daily; etanercept 10 mg/kg i.p. every other day
Method: Male DBA/1 mice were immunised by intradermal injection at the base of the tail with an emulsion of 200 μg of bCII in CFA containing 3 mg/ml Mycobacterium tuberculosis. Non-immunised mice served as the negative control of disease. Animals were monitored by visual inspection for appearance of peripheral oedema. […] Upon onset, animals were recruited and randomised. Recruitment was given a cut-off at day 40. Upon recruitment, arthritis clinical score was assigned, and oedema was measured via caliper.
as §1
Oedema measurement was performed every day before treatment, and all animals were blindly scored for clinical signs of arthritis as follows: 0 = normal; 1 = slight swelling and/or erythema; 2 = pronounced oedematous swelling; and 3 = ankyloses and severe swelling. A score of 0.5 was given to swollen toe/toes or when inflammation was localised to one part of the foot. Each limb was measured separately, with a final score based on the sum of the scores from all four paws.

[12] = tested on: GABA (non-selective); experiment: GABA receptor (non-selective) binding; conditions: [^3H]GABA, Rat cerebral cortex
[13] = tested on: arthritic rats (collagen-induced arthritis model); experiment: Collagen-induced arthritis in rats: clinical score, oedema, histology; assay type: in vivo, rat
Method: Male Lewis rats were immunised by intradermal injection at the base of the tail with an emulsion containing 150 μg of bovine collagen type II (bCII) in complete Freund’s adjuvant (CFA) or received an injection with incomplete Freund’s adjuvant (sham group). Three weeks after the first immunisation, animals were boosted with the same procedure. Three days after booster injection, arthritis had developed in all animals but the sham group. Oedema was assessed via plethysmometer (Ugo Basile, Varese, Italy), and the animals were then randomised to treatment groups. Oedema measurement was performed again after 7 and 14 days of treatment. Animals were blindly scored by two different investigators for clinical signs of arthritis (redness, swelling, pain of hind limb joints) as follows: 0 = normal; 1 = mild but definite redness and swelling of the ankle or wrist or individual digits, regardless of the number of affected digits; 2 = moderate redness and swelling of ankle or wrist; 3 = severe redness and swelling of the entire paw including digits; and 4 = maximally inflamed limb with involvement of multiple joints. The mean of the scores assigned by the investigators was calculated.
Three different experiments in rat CIA are reported: a dose-response study, as well as two comparative studies vs the COX-2 inhibitor rofecoxib and the Janus kinase (JAK) inhibitor tofacitinib, respectively.
Briefly, the paws were fixed in 10% neutral buffered formalin (Bio-Optica, Milan, Italy) and subsequently decalcified in EDTA for 4 weeks. Samples were dehydrated in an ethanol series and embedded in paraffin. At least three non-consecutive sections for each paw were blindly scored at the level of the tarsus, metatarsus and calcaneus for the following histological features: synovial oedema, pannus, synovial inflammatory cell infiltrate, cartilage damage, osteolysis and woven bone. Based on these histological features, a synovial score (synovial oedema, plus synovial inflammatory cell infiltrate, plus pannus), a bone score (woven bone plus osteolysis) and a total score were calculated. Two independent pathologists performed histopathology on blinded slides. The data of right and left hind limbs were summed for each rat.

[14] = tested on: Cl^- channel (GABA-gated); experiment: Ion channel Cl- (GABA-gated) binding; conditions: [^35S]TBPS, Rat cerebral cortex
[15] = target: 5-HT transporter (Homo sapiens, UniProt P31645); experiment: 5-HT transporter binding; conditions: [^3H]imipramine, Human recombinant CHO cells, read-out: CR6086 Activity at 10µM
5-HT transporter, sequence (P31645 whole entry): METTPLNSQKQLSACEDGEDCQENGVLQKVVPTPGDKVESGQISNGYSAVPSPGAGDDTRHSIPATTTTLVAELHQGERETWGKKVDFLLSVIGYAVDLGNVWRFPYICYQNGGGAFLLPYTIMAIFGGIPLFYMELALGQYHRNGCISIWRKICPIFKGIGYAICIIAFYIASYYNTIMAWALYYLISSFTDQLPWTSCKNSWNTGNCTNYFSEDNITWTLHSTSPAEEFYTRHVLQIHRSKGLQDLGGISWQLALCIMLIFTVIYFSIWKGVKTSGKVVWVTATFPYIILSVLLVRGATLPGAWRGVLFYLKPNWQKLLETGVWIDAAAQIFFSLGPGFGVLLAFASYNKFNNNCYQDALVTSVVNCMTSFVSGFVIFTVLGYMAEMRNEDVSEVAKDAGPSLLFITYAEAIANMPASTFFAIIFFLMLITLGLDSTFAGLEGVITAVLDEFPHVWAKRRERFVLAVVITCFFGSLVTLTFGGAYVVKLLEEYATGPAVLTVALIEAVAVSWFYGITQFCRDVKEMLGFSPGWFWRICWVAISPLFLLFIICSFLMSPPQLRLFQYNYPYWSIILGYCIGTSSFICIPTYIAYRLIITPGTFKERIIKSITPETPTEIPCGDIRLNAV

O=C([O-])c1ccc(C2(NC(=O)[C@H]3CC4(CCN3Cc3ccc(C(F)(F)F)cc3)CC4)CC2)cc1.[Na+] [CR6086, Sodium (R)-4-(1-(6-(4-(trifluoromethyl)benzyl)-6-azaspiro[2.5]octane-5-carboxamido)cyclopropyl)benzoate]
inhibition at 10 µM [1]: < 20%
inhibition at 10 µM [2]: < 20%
inhibition at 10 µM [3]: < 20%
inhibition at 10 µM [4]: < 20%
inhibition at 10 µM [5]: < 20%
inhibition at 10 µM [6]: < 20%
inhibition at 10 µM [7]: < 20%
inhibition at 10 µM [8]: < 20%
inhibition at 10 µM [9]: < 20%
B cells, Percentage of total cells [10]: 6.65 ± 0.72%
Dendritic cells, Percentage of total cells [10]: 1.72 ± 0.44%
Macrophages, Percentage of total cells [10]: 11.14 ± 2.93^a %
Neutrophils, Percentage of total cells [10]: 9.98 ± 2.89^a %
Th1, Percentage of total cells [10]: 0.14 ± 0.03^b %
Th17, Percentage of total cells [10]: 0.06 ± 0.01^b %
Treg, Percentage of total cells [10]: 0.38 ± 0.12%
effect on disease parameters (visual clinical score, paw swelling) vs vehicle [11]: significantly improved
CR6086 Activity at 10µM [12]: IN (IN = < 20% displacement or inhibition (all tables))
effect on structural and inflammatory parameters (oedema, histology) ([13]; 15 mg/kg once daily, 14 days): markedly and significantly improved all the structural and inflammatory parameters
effect on arthritis clinical score and oedema ([13]; 1-10 mg/kg oral daily, 1 h and 24 h post-dosing): significantly and dose-dependently reduced
efficacy relative to active comparators ([13]; CR6086 15 mg/kg once daily, rofecoxib 5–15 mg/kg once daily, tofacitinib 5–25 mg/kg twice daily): more effective than rofecoxib; also recorded: as effective as, but more potent than, tofacitinib
dose at which efficacy plateaued ([13]; oral, once daily, 14 days): around 10 mg/kg
minimum effective dose ([13]; oral, once daily, 14 days): 1 mg/kg
CR6086 Activity at 10µM [14]: IN (IN = < 20% displacement or inhibition (all tables))
inhibition at 10 µM [15]: < 20%
